Results reported in the supplement of paper PMC13380429.

What was measured:
Conditions in all cases: 72 h
HepG2 [1] = test: cell viability relative to DMSO; higher = less toxic
U2OS [2] = test: as above
Calu-3 [3] = test: as above
Vero E6 [4] = test: as above
Caco-2 [5] = test: as above
HepG2 [6] = test: drug sensitivity score (DSS) for viability; higher = more toxic; extreme values may be limits of the assay
U2OS [7] = test: as above
Calu-3 [8] = test: as above
Vero E6 [9] = test: as above
Caco-2 [10] = test: as above
HepG2 [11] = test: relative viability EC50 (midpoint between 100% and the lowest measured viability); higher = less toxic
U2OS [12] = test: as above
Calu-3 [13] = test: as above
Vero E6 [14] = test: as above
Caco-2 [15] = test: as above

SMILES	cell viability (HepG2 [1]; 1 nM) [%]	cell viability (HepG2 [1]; 10 nM) [%]	cell viability (HepG2 [1]; 100 nM) [%]	cell viability (HepG2 [1]; 1000 nM) [%]	cell viability (HepG2 [1]; 10000 nM) [%]	cell viability (U2OS [2]; 1 nM) [%]	cell viability (U2OS [2]; 10 nM) [%]	cell viability (U2OS [2]; 100 nM) [%]	cell viability (U2OS [2]; 1000 nM) [%]	cell viability (U2OS [2]; 10000 nM) [%]	cell viability (Calu-3 [3]; 1 nM) [%]	cell viability (Calu-3 [3]; 10 nM) [%]	cell viability (Calu-3 [3]; 100 nM) [%]	cell viability (Calu-3 [3]; 1000 nM) [%]	cell viability (Calu-3 [3]; 10000 nM) [%]	cell viability (Vero E6 [4]; 1 nM) [%]	cell viability (Vero E6 [4]; 10 nM) [%]	cell viability (Vero E6 [4]; 100 nM) [%]	cell viability (Vero E6 [4]; 1000 nM) [%]	cell viability (Vero E6 [4]; 10000 nM) [%]	cell viability (Caco-2 [5]; 1 nM) [%]	cell viability (Caco-2 [5]; 10 nM) [%]	cell viability (Caco-2 [5]; 100 nM) [%]	cell viability (Caco-2 [5]; 1000 nM) [%]	cell viability (Caco-2 [5]; 10000 nM) [%]	drug sensitivity score (HepG2 [6])	drug sensitivity score (U2OS [7])	drug sensitivity score (Calu-3 [8])	drug sensitivity score (Vero E6 [9])	drug sensitivity score (Caco-2 [10])	relative viability EC50 (HepG2 [11]) [µM]	relative viability EC50 (U2OS [12]) [µM]	relative viability EC50 (Calu-3 [13]) [µM]	relative viability EC50 (Vero E6 [14]) [µM]	relative viability EC50 (Caco-2 [15]) [µM]
CCCCCCCCCCCCCCCCOP(=O)([O-])OCC[N+](C)(C)C [miltefosine]	107	98.5	112	96.4	109	96.8	103	97.2	99.9	95.5	98.3	91.5	90.3	108	86.5	96.1	101	110	105	77.3	113	104	106	114	99.8	0	0	0	0.6	0	> 10	> 10	> 10	> 10	> 10
CC[C@@H](Nc1c(Nc2cccc(C(=O)N(C)C)c2O)c(=O)c1=O)c1ccc(C)o1 [navarixin]	97.9	87.4	93.8	94.6	99	93.4	102	98.3	98.4	103	89.2	98.3	95.1	102	105	94.9	95.3	96.6	90.2	107	95	99.3	106	99.3	91.6	0	0	0	0	0	> 10	> 10	> 10	> 10	> 10
COC(=O)C1=C(C)NC(C)=C(C(=O)OCCN(C)Cc2ccccc2)C1c1cccc([N+](=O)[O-])c1 (stereo not given) [nicardipine]	91.6	100	141	109	95.4	96.5	103	95.5	98.1	91.3	91.7	91.5	94.1	90.2	90.2	93.2	106	98.2	103	96.9	102	120	97.9	84.1	84.8	0	0	0	0	1.9	> 10	> 10	> 10	> 10	> 10
O=C(O)c1ccc(-c2ccc3cc(O)c(C45CC6CC(CC(C6)C4)C5)cc3c2)cc1 [CD-1530]	108	102	97.4	124	106	98.2	96	97.7	93	86.2	95.9	99.6	98.8	98.5	88	93.4	103	95.8	106	103	90.9	98.9	94.9	84.4	88	0	0.1	0.1	0	0.4	> 10	> 10	> 10	> 10	> 10
Cc1ccccc1/N=N/c1ccc(/N=N/c2c(O)ccc3ccccc23)c(C)c1 [sudan-IV]	96.3	111	104	81.2	92.7	97.8	102	93.3	95.3	90.5	98.2	107	96.6	107	95.2	104	100	104	110	87.4	96.3	119	113	120	94.5	2.2	0	0	0	0	> 10	> 10	> 10	> 10	> 10
O[C@@H](C[C@H]1c2ccccc2-c2cncn21)C1CCCCC1 [NLG919]	108	95.9	102	93.5	94.1	93.1	93	94	96.7	90.7	106	111	92.7	105	85.6	97.3	98.5	93.3	89.8	84.2	97.6	97	102	95.8	86.3	0	0	0.1	0.7	0.4	> 10	> 10	> 10	> 10	> 10
CCCCCCCCCCCCCCCC(=O)OC[C@@H](NC(=O)C(Cl)Cl)[C@H](O)c1ccc([N+](=O)[O-])cc1 [chloramphenicol-palmitate]	98.1	101	103	92.4	88.6	105	99.6	102	104	100	97.3	95.6	95.2	97	102	107	107	102	97.2	99.3	111	102	99	95.1	95.3	0.2	0	0	0	0	> 10	> 10	> 10	> 10	> 10
CCC(CO)(C(=O)OC1CC2CCC(C1)[N+]2(C)C)c1ccccc1 (stereo not given) [troventol]	93.6	103	93.1	107	113	97.3	94.3	99.4	97.8	105	99.8	94.6	91.8	102	93.9	93.7	96	86.6	97.8	110	92.5	92.6	98.5	94.2	94.2	0	0	0	0	0	> 10	> 10	> 10	> 10	> 10
O=C(O)c1ccccc1-c1ccc(C(F)(F)F)cc1 [xenalipin]	89.1	90.8	94.6	97	109	100	95.8	103	98	105	101	101	111	98.6	107	98.6	104	92.2	98.6	98.2	97.1	92.8	99	92.1	97.6	0	0	0	0	0	> 10	> 10	> 10	> 10	> 10
CO[C@H]1CC[C@H](N(c2cc(C3=CCCCC3)sc2C(=O)O)C(=O)[C@H]2CC[C@H](C)CC2)CC1 [VCH-916]	103	92.8	110	110	114	96.2	98.7	98.6	98.6	101	90.8	110	107	97.5	104	96.9	95.7	98.8	103	110	92.2	93.4	105	95.5	105	0	0	0	0	0	> 10	> 10	> 10	> 10	> 10
Cc1oc(-c2ccccc2)nc1CCC(=O)c1ccc(CC2SC(=O)NC2=O)cc1 (stereo not given) [darglitazone]	96.9	95	95.8	96.3	95.4	109	98.7	102	102	103	97.4	110	114	111	119	96	90.8	83.3	76	83.3	102	95.5	96.2	91.9	91.2	0	0	0	4.8	0	> 10	> 10	> 10	> 10	> 10
